Assay: Stability of cannabinoid and Vitamin E components of Beverage 2 (AB Red) stored at 8° C. and 21-25° C., LCMSMS over 570 days
Method: The LCMSMS was calibrated for 0-50 ng/ml cannabinoids with the same resin material used in the preparation of the concentrates. At each time period, 100 μml of beverage was diluted with 10 ml of methanol and injected into the LCMSMS for analysis.

SMILES: C=C(C)[C@@H]1CCC(C)=C[C@H]1c1c(O)cc(CCC)cc1O [CBDV, cannabidivarin]
- Stability of Cannabinoids in AB Red (8° C., 0 days): 0.200 µg/mL
- Stability of Cannabinoids in AB Red (8° C., 1 days): 0.194 µg/mL
- Stability of Cannabinoids in AB Red (8° C., 2 days): 0.197 µg/mL
- Stability of Cannabinoids in AB Red (8° C., 3 days): 0.199 µg/mL
- Stability of Cannabinoids in AB Red (8° C., 5 days): 0.198 µg/mL
- Stability of Cannabinoids in AB Red (8° C., 8 days): 0.198 µg/mL
- Stability of Cannabinoids in AB Red (8° C., 9 days): 0.201 µg/mL
- Stability of Cannabinoids in AB Red (8° C., 10 days): 0.194 µg/mL
- Stability of Cannabinoids in AB Red (8° C., 11 days): 0.195 µg/mL
- Stability of Cannabinoids in AB Red (8° C., 12 days): 0.198 µg/mL
- Stability of Cannabinoids in AB Red (8° C., 15 days): 0.194 µg/mL
- Stability of Cannabinoids in AB Red (8° C., 16 days): 0.195 µg/mL
- Stability of Cannabinoids in AB Red (8° C., 17 days): 0.195 µg/mL
- Stability of Cannabinoids in AB Red (8° C., 18 days): 0.195 µg/mL
- Stability of Cannabinoids in AB Red (8° C., 19 days): 0.199 µg/mL
- Stability of Cannabinoids in AB Red (8° C., 22 days): 0.200 µg/mL
- Stability of Cannabinoids in AB Red (8° C., 23 days): 0.194 µg/mL
- Stability of Cannabinoids in AB Red (8° C., 24 days): 0.197 µg/mL
- Stability of Cannabinoids in AB Red (8° C., 25 days): 0.199 µg/mL
- Stability of Cannabinoids in AB Red (8° C., 26 days): 0.199 µg/mL
- Stability of Cannabinoids in AB Red (8° C., 29 days): 0.197 µg/mL
- Stability of Cannabinoids in AB Red (8° C., 30 days): 0.200 µg/mL
- Stability of Cannabinoids in AB Red (8° C., 60 days): 0.199 µg/mL
- Stability of Cannabinoids in AB Red (8° C., 90 days): 0.196 µg/mL
- Stability of Cannabinoids in AB Red (8° C., 120 days): 0.193 µg/mL
- Stability of Cannabinoids in AB Red (8° C., 150 days): 0.198 µg/mL
- Stability of Cannabinoids in AB Red (8° C., 180 days): 0.192 µg/mL
- Stability of Cannabinoids in AB Red (8° C., 210 days): 0.193 µg/mL
- Stability of Cannabinoids in AB Red (8° C., 240 days): 0.192 µg/mL
- Stability of Cannabinoids in AB Red (8° C., 270 days): 0.195 µg/mL
- Stability of Cannabinoids in AB Red (8° C., 300 days): 0.193 µg/mL
- Stability of Cannabinoids in AB Red (8° C., 330 days): 0.191 µg/mL
- Stability of Cannabinoids in AB Red (8° C., 390 days): 0.194 µg/mL
- Stability of Cannabinoids in AB Red (8° C., 420 days): 0.193 µg/mL
- Stability of Cannabinoids in AB Red (8° C., 450 days): 0.195 µg/mL
- Stability of Cannabinoids in AB Red (8° C., 480 days): 0.190 µg/mL
- Stability of Cannabinoids in AB Red (8° C., 510 days): 0.184 µg/mL
- Stability of Cannabinoids in AB Red (8° C., 540 days): 0.185 µg/mL
- Stability of Cannabinoids in AB Red (8° C., 570 days): 0.183 µg/mL
- Stability of Cannabinoids in AB Red (21-25° C., 0 days): 0.20 µg/mL
- Stability of Cannabinoids in AB Red (21-25° C., 1 days): 0.20 µg/mL
- Stability of Cannabinoids in AB Red (21-25° C., 2 days): 0.20 µg/mL
- Stability of Cannabinoids in AB Red (21-25° C., 3 days): 0.20 µg/mL
- Stability of Cannabinoids in AB Red (21-25° C., 5 days): 0.19 µg/mL
- Stability of Cannabinoids in AB Red (21-25° C., 8 days): 0.20 µg/mL
- Stability of Cannabinoids in AB Red (21-25° C., 9 days): 0.20 µg/mL
- Stability of Cannabinoids in AB Red (21-25° C., 10 days): 0.20 µg/mL
- Stability of Cannabinoids in AB Red (21-25° C., 11 days): 0.20 µg/mL
- Stability of Cannabinoids in AB Red (21-25° C., 12 days): 0.20 µg/mL
- Stability of Cannabinoids in AB Red (21-25° C., 15 days): 0.20 µg/mL
- Stability of Cannabinoids in AB Red (21-25° C., 16 days): 0.19 µg/mL
- Stability of Cannabinoids in AB Red (21-25° C., 17 days): 0.20 µg/mL
- Stability of Cannabinoids in AB Red (21-25° C., 18 days): 0.20 µg/mL
- Stability of Cannabinoids in AB Red (21-25° C., 19 days): 0.19 µg/mL
- Stability of Cannabinoids in AB Red (21-25° C., 22 days): 0.20 µg/mL
- Stability of Cannabinoids in AB Red (21-25° C., 23 days): 0.19 µg/mL
- Stability of Cannabinoids in AB Red (21-25° C., 24 days): 0.19 µg/mL
- Stability of Cannabinoids in AB Red (21-25° C., 25 days): 0.19 µg/mL
- Stability of Cannabinoids in AB Red (21-25° C., 26 days): 0.19 µg/mL

Source: US20240415914A1, “Water Dispersible Cannabinoid Compositions” (priority 2021, published 2024)
